Test results: patent US20110262502A1, “PULMONARY DELIVERY OF 17-HYDROXYPROGESTERONE CAPROATE (17-HPC)” (Prairie Pharmaceuticals LLC, priority 2010, published 2011)

Tested on: PHA-induced IL-2 production in PBMCs
Assay: PHA-induced IL-2 production in PBMCs from healthy male smokers (no IL-2/IL-4 added), ELISA
Format: cell-based, human
Parameters: PR2005 IC50: unit not given here
Settings: for mean IL-2: Table 1; for % inhibition of PHA stimulation of IL-2: Table 2
Procedure: PBMCs were isolated from human blood buffy coats provided by a regional blood center. Random buffy coat cells from male donors were a by-product of blood processed for clinical use and no details (i.e., personal identification and background) were provided except for tobacco use. […] PBMCs were separated using a porous high density polyethylene barrier (HISTOPAQUE from GEHealthcare Bio-Sciences AB (US). After centrifugation of blood samples in each tube (35 minutes at 800×g at room temperature, or RT), PBMCs were collected and washed twice with Hank's buffered saline solution (HBSS). PBMCs were resuspended in RPMI-1640 medium containing 10% fetal calf serum (FCS) and 15 mM glutamine and cells were counted and plated.
PBMCs (2×10^6) were incubated with or without IL-2 (13 ng/ml) and IL-4 (6.5 ng/ml) for 48 hours in RPMI-1640 medium containing 10% FCS and 2 mM glutamine. […] IL-2 and IL-4 stimulated PBMCs were also plated at a concentration of 10^6 cells/ml in 96-well plates ready for PHA (15 μg/mL, 24 hours) stimulation of cytokine release and detection by ELISA.
Serial dilutions of standards and PBMCs' supernatants were measured by enzyme linked immunosorbent assay to determine IL-2 at baseline and its levels after 17HPC, P4 and MAP treatments. Optical density was measured at 450 nm and corrected with 550 nm. The concentration of TL-2 was calculated using the standard curve and taking into account the supernatant dilution used. Detection limit for IL-2 is 4.0 pg/ml.
Data are expressed as mean±SD. The efficacies of the drug treatments were analyzed by paired t-test. One-way analysis of variance was used to compare three or more matched groups and 95% CI was performed to present groups differences. All graphs indicate mean values of results or % inhibition of PHA-stimulated IL-2. IC50 values were calculated by using a sigmoidal model (BioDataFit). A p value <0.05 was considered statistically significant.
(§1) IL-2 levels were quantified using ELISA.
IL-2 levels were quantified using ELISA. IC50 values were calculated by using a sigmoidal model (BioDataFit).
as §1, §1, §1

`CCCCCC(=O)O[C@]1(C(C)=O)CC[C@H]2[C@@H]3CCC4=CC(=O)CC[C@]4(C)[C@H]3CC[C@@]21C` [17HPC, 17α-HYDROXYPROGESTERONE CAPROATE] was tested, and the “PR2005 IC50” value (Dexamethasone 0) was 6.434, the “suppression of PHA induced IL-2” value (FIG. 11, 17HPC add-on to Dexamethasone 10^−6 M) was about 100% and the “improvements in Dexamethasone efficacy (synergetic effect of combination)” value (FIG. 12, 17HPC with Dexamethasone) was 25-37%. For the same molecule, the “mean IL-2” value (17HPC 10^−5M + Dexamethasone 10^−6M) was 24.61 pg/mL, the “mean IL-2” value (17HPC 10^−5M + Dexamethasone 10^−8M) was 136.2 pg/mL and the “mean IL-2” value (17HPC 10^−5M + Dexamethasone 10^−10M) was 138.6 pg/mL. The “mean IL-2” value (17HPC 10^−5M + Dexamethasone 10^−12M) was 176.2 pg/mL, the “mean IL-2” value (17HPC 10^−5M, Dexamethasone 0) was 225.6 pg/mL and the “mean IL-2” value (17HPC 10^−7M + Dexamethasone 10^−6M) was 9.914 pg/mL. For the same molecule, the “mean IL-2” value (17HPC 10^−7M + Dexamethasone 10^−8M) was 229.3 pg/mL, the “mean IL-2” value (17HPC 10^−7M + Dexamethasone 10^−10M) was 104.5 pg/mL and the “mean IL-2” value (17HPC 10^−7M + Dexamethasone 10^−12M) was 111.6 pg/mL. For the same molecule, the “mean IL-2” value (17HPC 10^−7M, Dexamethasone 0) was 466.3 pg/mL, the “mean IL-2” value (17HPC 10^−10M + Dexamethasone 10^−6M) was 27.18 pg/mL and the “mean IL-2” value (17HPC 10^−10M + Dexamethasone 10^−8M) was 173.5 pg/mL. The “mean IL-2” value (17HPC 10^−10M + Dexamethasone 10^−10M) was 177.7 pg/mL, the “mean IL-2” value (17HPC 10^−10M + Dexamethasone 10^−12M) was 132.3 pg/mL and the “mean IL-2” value (17HPC 10^−10M, Dexamethasone 0) was 420.6 pg/mL. For the same molecule, the “mean IL-2” value (17HPC 10^−11M + Dexamethasone 10^−6M) was 9.05 pg/mL, the “mean IL-2” value (17HPC 10^−11M + Dexamethasone 10^−8M) was 167.9 pg/mL and the “mean IL-2” value (17HPC 10^−11M + Dexamethasone 10^−10M) was 164.4 pg/mL. For the same molecule, the “mean IL-2” value (17HPC 10^−11M + Dexamethasone 10^−12M) was 275.2 pg/mL, the “mean IL-2” value (17HPC 10^−11M, Dexamethasone 0) was 448.2 pg/mL and the “% inhibition of PHA stimulation of IL-2” value (17HPC 10^−5 M + Dexamethasone 10^−6 M) was 97%. For the same molecule, the “% inhibition of PHA stimulation of IL-2” value (17HPC 10^−5 M + Dexamethasone 10^−8 M) was 81%, the “% inhibition of PHA stimulation of IL-2” value (17HPC 10^−5 M + Dexamethasone 10^−10 M) was 81% and the “% inhibition of PHA stimulation of IL-2” value (17HPC 10^−5 M + Dexamethasone 10^−12 M) was 76%. For the same molecule, the “% inhibition of PHA stimulation of IL-2” value (17HPC 10^−5 M, Dexamethasone 0 M) was 69%, the “% inhibition of PHA stimulation of IL-2” value (17HPC 10^−7 M + Dexamethasone 10^−6 M) was 99% and the “% inhibition of PHA stimulation of IL-2” value (17HPC 10^−7 M + Dexamethasone 10^−8 M) was 69%. The “% inhibition of PHA stimulation of IL-2” value (17HPC 10^−7 M + Dexamethasone 10^−10 M) was 86%, the “% inhibition of PHA stimulation of IL-2” value (17HPC 10^−7 M + Dexamethasone 10^−12 M) was 85% and the “% inhibition of PHA stimulation of IL-2” value (17HPC 10^−7 M, Dexamethasone 0 M) was 37%. The “% inhibition of PHA stimulation of IL-2” value (17HPC 10^−10 M + Dexamethasone 10^−6 M) was 96%, the “% inhibition of PHA stimulation of IL-2” value (17HPC 10^−10 M + Dexamethasone 10^−8 M) was 76% and the “% inhibition of PHA stimulation of IL-2” value (17HPC 10^−10 M + Dexamethasone 10^−10 M) was 76%. For the same molecule, the “% inhibition of PHA stimulation of IL-2” value (17HPC 10^−10 M + Dexamethasone 10^−12 M) was 82%, the “% inhibition of PHA stimulation of IL-2” value (17HPC 10^−10 M, Dexamethasone 0 M) was 43% and the “% inhibition of PHA stimulation of IL-2” value (17HPC 10^−11 M + Dexamethasone 10^−6 M) was 99%. The “% inhibition of PHA stimulation of IL-2” value (17HPC 10^−11 M + Dexamethasone 10^−8 M) was 77%, the “% inhibition of PHA stimulation of IL-2” value (17HPC 10^−11 M + Dexamethasone 10^−10 M) was 78% and the “% inhibition of PHA stimulation of IL-2” value (17HPC 10^−11 M + Dexamethasone 10^−12 M) was 63%. For the same molecule, the “% inhibition of PHA stimulation of IL-2” value (17HPC 10^−11 M, Dexamethasone 0 M) was 39%, the IL-2 inhibition (add-on of low doses of 17HPC (10^−11 M or 10^−10 M) to lower Dexamethasone doses) was at least 78% and the “effect in basal IL-2 level” value (no PHA stimulation, data not shown) was “no significant effect”. For the same molecule, the “PR2005 IC50” value (with Dexamethasone 10^−8M) was 6.243, the “PR2005 IC50” value (with Dexamethasone 10^−10M) was 11.64 and the “PR2005 IC50” value (with Dexamethasone 10^−12M) was 10.92.
